Structures are written as SMILES. pIC50: −log10 of the molar value.

This passage reports IC50 results from US20220056015A1, “KIF18A INHIBITORS” (AMGEN INC., priority 2018, published 2022).

T1 sequence (Q8NI77 1-467): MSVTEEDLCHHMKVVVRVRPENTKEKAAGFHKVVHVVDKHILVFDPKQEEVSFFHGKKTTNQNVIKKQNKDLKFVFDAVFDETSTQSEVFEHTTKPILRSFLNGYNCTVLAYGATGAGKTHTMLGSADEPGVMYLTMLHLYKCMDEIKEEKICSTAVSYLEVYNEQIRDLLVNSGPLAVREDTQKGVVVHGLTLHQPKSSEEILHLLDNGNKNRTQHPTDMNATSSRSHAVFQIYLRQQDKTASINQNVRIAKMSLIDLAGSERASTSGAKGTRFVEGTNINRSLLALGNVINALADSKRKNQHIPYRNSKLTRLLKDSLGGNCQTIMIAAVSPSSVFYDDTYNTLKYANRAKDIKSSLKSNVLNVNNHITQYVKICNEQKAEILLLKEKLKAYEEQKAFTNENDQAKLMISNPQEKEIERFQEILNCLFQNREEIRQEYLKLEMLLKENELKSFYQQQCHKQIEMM
T1 sequence (P02550 whole entry partner): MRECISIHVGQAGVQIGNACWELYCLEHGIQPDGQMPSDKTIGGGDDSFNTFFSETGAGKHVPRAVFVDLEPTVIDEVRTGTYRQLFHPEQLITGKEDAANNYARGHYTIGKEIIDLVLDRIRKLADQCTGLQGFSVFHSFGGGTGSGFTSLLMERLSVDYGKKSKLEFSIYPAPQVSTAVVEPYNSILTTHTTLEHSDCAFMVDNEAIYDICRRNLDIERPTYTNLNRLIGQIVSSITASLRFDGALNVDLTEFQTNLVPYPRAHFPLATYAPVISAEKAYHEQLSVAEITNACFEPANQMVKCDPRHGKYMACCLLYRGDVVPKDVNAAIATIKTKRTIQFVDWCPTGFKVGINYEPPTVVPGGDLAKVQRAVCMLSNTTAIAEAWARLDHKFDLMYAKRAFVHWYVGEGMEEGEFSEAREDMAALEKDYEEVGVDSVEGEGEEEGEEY
T1 sequence (P02554 whole entry partner): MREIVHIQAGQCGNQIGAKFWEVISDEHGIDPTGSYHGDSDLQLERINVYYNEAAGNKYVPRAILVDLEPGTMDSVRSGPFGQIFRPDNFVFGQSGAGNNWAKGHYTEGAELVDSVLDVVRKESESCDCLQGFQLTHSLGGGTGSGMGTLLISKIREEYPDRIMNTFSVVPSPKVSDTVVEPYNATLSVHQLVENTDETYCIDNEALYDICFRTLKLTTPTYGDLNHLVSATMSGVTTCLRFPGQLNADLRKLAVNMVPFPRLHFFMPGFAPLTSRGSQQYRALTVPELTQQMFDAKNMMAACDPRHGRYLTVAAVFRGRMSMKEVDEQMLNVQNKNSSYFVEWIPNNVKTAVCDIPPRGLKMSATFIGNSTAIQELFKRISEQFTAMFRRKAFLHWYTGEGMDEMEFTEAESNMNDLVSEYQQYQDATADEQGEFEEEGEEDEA

This test concerns the target T1, Recombinant human KIF18A (1-467 His-tagged) protein (Homo sapiens, UniProt Q8NI77).
T1 construct: Recombinant human KIF18A (1-467 His-tagged) protein; His
Put plainly: KIF18A Enzyme Assay: microtubule-stimulated ATPase activity assay (ADP-Glo). Conditions: 30 nM KIF18A, 30 μg/mL pig microtubules, ATP at Km 75 μM, room temperature, ADP-Glo luminescence. Type of test: biochemical. The source says: KIF18A Enzyme Assay: Microtubule-stimulated ATPase activity assay is used to measure KIF18A enzyme activity after treatment with compound. Compounds were 2-fold serially diluted in DMSO (Sigma Inc) over 22-point concentration range. Recombinant human KIF18A (1-467 His-tagged) protein was expressed using a baculovirus system and purified by affinity chromatography by Amgen Inc. Concentrations of KIF18A protein, microtubules (MT), and ATP in the reaction were optimized for standardized homogenous enzyme assay using ADP-Glorm Kinase/ATPase Assay Kit (Promega Inc). The assay measures ADP formed from the ATPase reaction. […] Read luminescence using EnVision microplate reader with ultra-luminescence module (Perkin Elmer Inc). Concentration-response curve-fitting and ICn determination was performed using Genedata Screener Software (Standard 15.0.1, Genedata Inc) with a four-parameter logistic regression fit model.
Turning to `Cc1cc(NC(=O)c2cnc(NS(=O)(=O)CCO)nc2N2CCC3(CC2)CC3)nc(N2CCC(F)(F)CC2)n1` [Example 7-1, N-(2-(4,4-difluoropiperidin-1-yl)-6-methylpyrimidin-4-yl)-2-((2-hydroxyethyl)sulfonamido)-4-(6-azaspiro[2.5]octan-6-yl)pyrimidine-5-carboxamide], the pIC50 was 6.57.
Consider `Cc1cc(NC(=O)c2ccc(NS(=O)(=O)CCO)nc2N2CCC3(CC2)CC3)nc(N2CCO[C@H](C)C2)n1` [Example 1-1, (R)-6-((2-Hydroxyethyl)sulfonamido)-N-(6-methyl-2-(2-methylmorpholino)pyrimidin-4-yl)-2-(6-azaspiro[2.5]octan-6-yl)nicotinamide], for which the pIC50 is 6.40.
For `Cc1cc(NC(=O)c2cnc(NC(C)(C)CO)nc2N2CCC3(CC2)CC3)nc(N2CCC(F)(F)CC2)n1` [Example 2-7, N-(2-(4,4-Difluoropiperidin-1-yl)-6-methylpyrimidin-4-yl)-2-((1-hydroxy-2-methylpropan-2-yl)amino)-4-(6-azaspiro[2.5]octan-6-yl)pyrimidine-5-carboxamide], the pIC50 was 7.26.
For `O=C(Nc1ccc(NS(=O)(=O)CCO)cc1N1CCC2(CC1)CC2)c1ccnc(N2CCC(F)(F)CC2)c1` [Example 11, 2-(4,4-Difluoropiperidin-1-yl)-N-(4-((2-hydroxyethyl)sulfonamido)-2-(6-azaspiro[2.5]octan-6-yl)phenyl)isonicotinamide], the pIC50 was 7.57.
For the compound `Cc1cc(NC(=O)c2ccc(NC(C)(C)CO)nc2N2CCC3(CC2)CC3)nc(N2CCO[C@H](C)C2)n1` [Example 2-5, (R)-6-((1-Hydroxy-2-methylpropan-2-yl)amino)-N-(6-methyl-2-(2-methylmorpholino)pyrimidin-4-yl)-2-(6-azaspiro[2.5]octan-6-yl)nicotinamide], the pIC50 is 6.64.
The figure for `Cc1cc(NC(=O)c2ncc(NS(=O)(=O)CCO)cc2N2CCC3(CC2)CC3)nc(N2CCC(F)(F)CC2)n1` [Example 6, N-(2-(4,4-Difluoropiperidin-1-yl)-6-methylpyrimidin-4-yl)-5-((2-hydroxyethyl)sulfonamido)-3-(6-azaspiro[2.5]octan-6-yl)picolinamide] is 7.82.
The same measure for `Cc1cc(NC(=O)c2ncc(NC(C)(C)CO)cc2N2CCC3(CC2)CC3)nc(N2CCC(F)(F)CC2)n1` [Example 2-6, N-(2-(4,4-Difluoropiperidin-1-yl)-6-methylpyrimidin-4-yl)-5-((1-hydroxy-2-methylpropan-2-yl)amino)-3-(6-azaspiro[2.5]octan-6-yl)picolinamide]: 6.91; for `Cc1cc(NC(=O)c2ncc(S(=O)(=O)C3CC3)cc2N2CCC3(CC2)CC3)nc(N2CCC(F)(F)CC2)n1` [Example 8, 5-(Cyclopropylsulfonyl)-N-(2-(4,4-difluoropiperidin-1-yl)-6-methylpyrimidin-4-yl)-3-(6-azaspiro[2.5]octan-6-yl)picolinamide]: 7.04; for `Cc1cc(NC(=O)c2ncc(S(=N)(=O)C3CC3)cc2N2CCC3(CC2)CC3)nc(N2CCC(F)(F)CC2)n1` (single isomer, unassigned) [Example 5-2, 3-(6-Azaspiro[2.5]octan-6-yl)-5-(S-cyclopropylsulfonimidoyl)-N-(2-(4,4-difluoro-1-piperidinyl)-6-methyl-4-pyrimidinyl)-2-pyridinecarboxamide]: 7.15.
For the compound `Cc1cc(NC(=O)c2ccc(NC3(C)COC3)nc2N2CCC3(CC2)CC3)nc(N2CCC(F)(F)CC2)n1` [Example 2-3, N-(2-(4,4-Difluoropiperidin-1-yl)-6-methylpyrimidin-4-yl)-6-((3-methyloxetan-3-yl)amino)-2-(6-azaspiro[2.5]octan-6-yl)nicotinamide], the pIC50 is 6.34.
In the case of `Cc1cc(NC(=O)c2ccc(NC3(CO)COC3)nc2N2CCC3(CC2)CC3)nc(N2CCO[C@H](C)C2)n1` [Example 2-2, (R)-6-((3-(Hydroxymethyl)oxetan-3-yl)amino)-N-(6-methyl-2-(2-methylmorpholino)pyrimidin-4-yl)-2-(6-azaspiro[2.5]octan-6-yl)nicotinamide], the pIC50 is 6.66.
The figure for `Cc1cc(NC(=O)c2cnc([S@@](=N)(=O)C3CC3)cc2N2CCC3(CC2)CC3)nc(N2CCC(F)(F)CC2)n1` (single isomer, unassigned) [Example 4-2, 4-(6-Azaspiro[2.5]octan-6-yl)-6-(R-cyclopropylsulfonimidoyl)-N-(2-(4,4-difluoro-1-piperidinyl)-6-methyl-4-pyrimidinyl)-3-pyridinecarboxamide] is 6.69; for `Cc1cc(NC(=O)c2ncc([S@](=N)(=O)C3CC3)cc2N2CCC3(CC2)CC3)nc(N2CCC(F)(F)CC2)n1` [Example 5-1, 3-(6-Azaspiro[2.5]octan-6-yl)-5-(R-cyclopropylsulfonimidoyl)-N-(2-(4,4-difluoro-1-piperidinyl)-6-methyl-4-pyrimidinyl)-2-pyridinecarboxamide] it is 6.98.
The same measure for `Cc1cc(NC(=O)c2cnc(NS(=O)(=O)CCO)cc2N2CCC3(CC2)CC3)nc(N2CCC(F)(F)CC2)n1` [Example 7, N-(2-(4,4-Difluoropiperidin-1-yl)-6-methylpyrimidin-4-yl)-6-((2-hydroxyethyl)sulfonamido)-4-(6-azaspiro[2.5]octan-6-yl)nicotinamide]: 7.89; for `Cc1cc(NC(=O)c2ncc(NS(=O)(=O)CCO)nc2N2CCC3(CC2)CC3)nc(N2CCC(F)(F)CC2)n1` [Example 10, N-(2-(4,4-Difluoropiperidin-1-yl)-6-methylpyrimidin-4-yl)-5-((2-hydroxyethyl)sulfonamido)-3-(6-azaspiro[2.5]octan-6-yl)pyrazine-2-carboxamide]: 7.10.
As to `Cc1cc(NC(=O)c2ncc(NC(C)(C)CO)nc2N2CCC3(CC2)CC3)nc(N2CCC(F)(F)CC2)n1` [Example 2-8, N-(2-(4,4-Difluoropiperidin-1-yl)-6-methylpyrimidin-4-yl)-5-((1-hydroxy-2-methylpropan-2-yl)amino)-3-(6-azaspiro[2.5]octan-6-yl)pyrazine-2-carboxamide], the pIC50 was 7.06.
With `Cc1cc(NC(=O)c2ccc(NS(=O)(=O)CCO)nc2N2CCC3(CC2)CC3)nc(N2CCC(F)(F)CC2)n1` [Example 1, N-(2-(4,4-difluoropiperidin-1-yl)-6-methylpyrimidin-4-yl)-6-((2-hydroxyethyl)sulfonamido)-2-(6-azaspiro[2.5]octan-6-yl)nicotinamide], the pIC50 is 7.51.
For the compound `Cc1cc(NC(=O)c2ccc(NC3COC3)nc2N2CCC3(CC2)CC3)nc(N2CCO[C@H](C)C2)n1` [Example 2, (R)—N-(6-methyl-2-(2-methylmorpholino)pyrimidin-4-yl)-6-(oxetan-3-ylamino)-2-(6-azaspiro[2.5]octan-6-yl)nicotinamide], the pIC50 was 6.04.
Consider `Cc1cc(NC(=O)c2cnc(S(=N)(=O)C3CC3)cc2N2CCC3(CC2)CC3)nc(N2CCC(F)(F)CC2)n1` (single isomer, unassigned) [Example 4-1, 4-(6-Azaspiro[2.5]octan-6-yl)-6-(S-cyclopropylsulfonimidoyl)-N-(2-(4,4-difluoro-1-piperidinyl)-6-methyl-4-pyrimidinyl)-3-pyridinecarboxamide], for which the pIC50 was 6.58.
In the case of `Cc1cc(NC(=O)c2ccc(NC3(CO)COC3)nc2N2CCC3(CC2)CC3)nc(N2CCC(F)(F)CC2)n1` [Example 2-4, N-(2-(4,4-Difluoropiperidin-1-yl)-6-methylpyrimidin-4-yl)-6-((3-(hydroxymethyl)oxetan-3-yl)amino)-2-(6-azaspiro[2.5]octan-6-yl)nicotinamide], the pIC50 was 6.76.
Take `Cc1cc(NC(=O)c2ccc(NC3(C)COC3)nc2N2CCC3(CC2)CC3)nc(N2CCO[C@H](C)C2)n1` [Example 2-1, (R)-N-(6-Methyl-2-(2-methylmorpholino)pyrimidin-4-yl)-6-((3-methyloxetan-3-yl)amino)-2-(6-azaspiro[2.5]octan-6-yl)nicotinamide]: the pIC50 is 6.45.
The figure for `Cc1cc(NC(=O)c2cc(NCCO)ncc2N2CCC3(CC2)CC3)nc(N2CCC(F)(F)CC2)n1` [Example 9, N-(2-(4,4-Difluoropiperidin-1-yl)-6-methylpyrimidin-4-yl)-2-((2-hydroxyethyl)amino)-5-(6-azaspiro[2.5]octan-6-yl)isonicotinamide] is 6.40.
